According to patent US9796700B2 (Celgene CAR LLC, priority 2013, dated 2017):

Molecular target: Erk1 (Homo sapiens (Human), UniProt P27361)
Assay: Protein Mass Modification Assay (intact protein MALDI)
Format: binding
Procedure, shortened: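 Human Erk1 was incubated 60 min at room temperature with a 10-fold molar excess of compound, then analysed as intact protein by MALDI with sinapinic acid matrix. The centroid mass shift versus untreated protein was divided by compound molecular weight to give percent modified protein.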

Chain of Erk1 (P27361 whole entry, looked up): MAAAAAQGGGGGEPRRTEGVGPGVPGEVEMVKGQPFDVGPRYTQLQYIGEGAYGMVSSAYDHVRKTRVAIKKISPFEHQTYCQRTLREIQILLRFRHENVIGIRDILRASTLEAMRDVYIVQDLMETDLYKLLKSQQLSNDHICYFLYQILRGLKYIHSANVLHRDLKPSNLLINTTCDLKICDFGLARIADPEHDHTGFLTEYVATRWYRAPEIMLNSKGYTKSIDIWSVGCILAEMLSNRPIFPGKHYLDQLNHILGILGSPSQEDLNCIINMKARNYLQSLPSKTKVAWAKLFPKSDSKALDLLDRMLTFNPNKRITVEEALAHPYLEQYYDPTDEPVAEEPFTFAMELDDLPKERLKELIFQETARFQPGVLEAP

SMILES	ERK1 Mass Mod (%)
C=CC(=O)Nc1ccccc1Oc1nc(Nc2ccc(N3CCC[C@@H]3CO)cc2OC)ncc1C(N)=O [Compound I-263, (R)-4-(2-acrylamidophenoxy)-2-((4-(2-(hydroxymethyl)pyrrolidin-1-yl)-2-methoxyphenyl)amino)pyrimidine-5-carboxamide]	E (provided a mass modification of ≧70%)
C=CC(=O)Nc1ccccc1Nc1nc(Nc2ccc(NC(=O)CO)cc2OC)ncc1Cl [Compound I-186, N-(2-((5-chloro-2-((4-(2-hydroxyacetamido)-2-methoxyphenyl)amino)pyrimidin-4-yl)amino)phenyl)acrylamide]	E (provided a mass modification of ≧70%)
C=CC(=O)Nc1ccccc1Nc1nc(Nc2ccnc(F)c2)ncc1C(F)(F)F [Compound I-287, N-(2-((2-((2-Fluoropyridin-4-yl)amino)-5-(trifluoromethyl)pyrimidin-4-yl)amino)phenyl)acrylamide]	E (provided a mass modification of ≧70%)
C=CC(=O)Nc1ccccc1Nc1nc(Nc2ccc(N(CCN)C(C)=O)cc2OC)ncc1Cl [Compound I-168, N-(2-((2-((4-(N-(2-aminoethyl)acetamido)-2-methoxyphenyl)amino)-5-chloropyrimidin-4-yl)amino)phenyl)acrylamide]	E (provided a mass modification of ≧70%)
C=CC(=O)Nc1ccccc1Nc1nc(NC2CCN(C=O)CC2)ncc1C(F)(F)F [Compound I-11, N-(2-((2-((1-formylpiperidin-4-yl)amino)-5-(trifluoromethyl)pyrimidin-4-yl)amino)phenyl)acrylamide]	E (provided a mass modification of ≧70%)
C=CC(=O)Nc1ccccc1Nc1nc(Nc2ccc3c(c2OC)CCCC(=O)N3CCN2CCOCC2)ncc1C(N)=O [Compound I-252, 4-((2-acrylamidophenyl)amino)-2-((6-methoxy-1-(2-morpholinoethyl)-2-oxo-2,3,4,5-tetrahydro-1H-benzo[b]azepin-7-yl)amino)pyrimidine-5-carboxamide]	F (provided a mass modification of 31-69%)
C=CC(=O)Nc1ccccc1Nc1nc(NC2CCN(C(=O)CCCC(=O)NCCCOCCOCCOCCCNC(=O)CCCC[C@@H]3SC[C@@H]4NC(=O)N[C@@H]43)CC2)ncc1Cl [Compound I-300, 5-(4-((4-((2-acrylamidophenyl)amino)-5-chloropyrimidin-2-yl)amino)piperidin-1-yl)-5-oxo-N-(15-oxo-19-((3aS,4S,6aR)-2-oxohexahydro-1H-thieno[3,4-d]imidazol-4-yl)-4,7,10-trioxa-14-azanonadecyl)pentanamide]	E (provided a mass modification of ≧70%)
C=CC(=O)Nc1ccccc1Oc1nc(Nc2ccc(N3CCC[C@@H]3C(N)=O)cc2OC)ncc1C(N)=O [Compound I-266, (R)-4-(2-acrylamidophenoxy)-2-((4-(2-carbamoylpyrrolidin-1-yl)-2-methoxyphenyl)amino)pyrimidine-5-carboxamide]	E (provided a mass modification of ≧70%)
C=CC(=O)Nc1ccccc1Nc1nc(N[C@@H]2CCC[C@H](C(=O)NOC)C2)ncc1C(F)(F)F (racemic) [Compound I-3, Rac-cis-3-((4-((2-acrylamidophenyl)amino)-5-(trifluoromethyl)pyrimidin-2-yl)amino)-N-methoxycyclohexanecarboxamide]	E (provided a mass modification of ≧70%)
C=C(C)S(=O)(=O)Nc1cc(F)ccc1Nc1nc(Nc2cc(C(C)=O)ccc2C)ncc1C(F)(F)F [Compound I-99, N-(2-((2-((5-acetyl-2-methylphenyl)amino)-5-(trifluoromethyl)pyrimidin-4-yl)amino)-5-fluorophenyl)prop-1-ene-2-sulfonamide]	G (proived a mass modification ≦30%)
C=CC(=O)N[C@@H]1CCCC[C@H]1Oc1nc(Nc2cc(C(=O)NOC)ccc2C)ncc1C(N)=O (racemic) [Compound I-269, Rac-trans-4-((2-acrylamidocyclohexyl)oxy)-2-((5-(methoxycarbamoyl)-2-methylphenyl)amino)pyrimidine-5-carboxamide]	G (proived a mass modification ≦30%)
C=CC(=O)Nc1cc(C)ccc1Nc1nc(Nc2ccnc(Cl)c2)ncc1Cl [Compound I-230, N-(2-((5-chloro-2-((2-chloropyridin-4-yl)amino)pyrimidin-4-yl)amino)-5-methylphenyl)acrylamide]	E (provided a mass modification of ≧70%)
C=CC(=O)Nc1ccccc1Nc1nc(Nc2ccc(N3CCOCC3)cc2OC)ncc1N [Compound I-144, N-(2-((5-amino-2-((2-methoxy-4-morpholinophenyl)amino)pyrimidin-4-yl)amino)phenyl) acrylamide]	F (provided a mass modification of 31-69%)
C=CC(=O)Nc1ccccc1Nc1nc(Nc2ccc(NC(=O)COC(C)=O)cc2OC)ncc1Cl [Compound I-183, 2-((4-((4-((2-acrylamidophenyl)amino)-5-chloropyrimidin-2-yl)amino)-3-methoxyphenyl)amino)-2-oxoethyl acetate]	E (provided a mass modification of ≧70%)
C=CC(=O)Nc1cc(OC)ccc1Nc1nc(Nc2cc(Cl)nc(OC)c2)ncc1Cl [Compound I-245, N-(2-((5-chloro-2-((2-chloro-6-methoxypyridin-4-yl)amino)pyrimidin-4-yl)amino)-5-methoxyphenyl)acrylamide]	F (provided a mass modification of 31-69%)
C=CC(=O)Nc1ccccc1Nc1nc(Nc2ccc(N3CCOCC3)cc2OC)ncc1/C(C)=N/O [Compound I-275, (E)-N-(2-((5-(1-(hydroxyimino)ethyl)-2-((2-methoxy-4-morpholinophenyl)amino)pyrimidin-4-yl)amino)phenyl)acrylamide]	G (proived a mass modification ≦30%)
C=CC(=O)Nc1ccccc1Nc1nc(NC2CCN(C(C)=O)CC2)ncc1Cl [Compound I-116, N-(2-((2-((1-acetylpiperidin-4-yl)amino)-5-chloropyrimidin-4-yl)amino)phenyl) acrylamide]	E (provided a mass modification of ≧70%)
C=CC(=O)Nc1ccccc1Nc1nc(Nc2cc(C(=O)O)ccc2C)ncc1C(F)(F)F [Compound I-78, 3-((4-((2-Acrylamidophenyl)amino)-5-(trifluoromethyl)pyrimidin-2-yl)amino)-4-methylbenzoic acid]	E (provided a mass modification of ≧70%)
C=CC(=O)Nc1ccccc1Nc1nc(Nc2ccc(N3CCOCC3)cc2OC)ncc1C#N [Compound I-143, N-(2-((5-cyano-2-((2-methoxy-4-morpholinophenyl)amino)pyrimidin-4-yl)amino)phenyl)acrylamide]	F (provided a mass modification of 31-69%)
C=CC(=O)Nc1ccccc1Nc1nc(Nc2cc(C(N)=O)ccc2C(F)(F)F)ncc1Cl [Compound I-220, 3-((4-((2-acrylamidophenyl)amino)-5-chloropyrimidin-2-yl)amino)-4-(trifluoromethyl)benzamide]	E (key: E: provided a mass modification of ≧70%; F: provided a mass modification of 31-69%; G: proived a mass modification ≦30%)
C=CC(=O)Nc1cc(C)ccc1Nc1nc(Nc2ccnc(F)c2)ncc1C(F)(F)F [Compound I-288, N-(2-((2-((2-Fluoropyridin-4-yl)amino)-5-(trifluoromethyl)pyrimidin-4-yl)amino)-5-methylphenyl)acrylamide]	E (provided a mass modification of ≧70%)
O=C(CCl)N[C@@H]1CCCC[C@H]1Nc1nc(N[C@H]2CCCN(C(=O)CO)C2)ncc1C(F)(F)F [Compound I-35, 2-Chloro-N-((1R,2R)-2-((2-(((S)-1-(2-hydroxyacetyl)piperidin-3-yl)amino)-5-(trifluoromethyl)pyrimidin-4-yl)amino)cyclohexyl)acetamide]	G (proived a mass modification ≦30%)
C=CC(=O)Nc1cc(F)ccc1Nc1nc(N[C@@H]2CCC[C@H](C(N)=O)C2)ncc1C(F)(F)F (racemic) [Compound I-5, Rac-cis-3-((4-((2-acrylamido-4-fluorophenyl)amino)-5-(trifluoromethyl)pyrimidin-2-yl)amino)cyclohexanecarboxamide]	E (provided a mass modification of ≧70%)
C=CC(=O)N[C@H]1CCCC[C@@H]1Nc1nc(N[C@H]2CCCN(C(=O)CO)C2)ncc1C(F)(F)F (racemic) [Compound I-27, Rac-N-(2-((2-(((R)-1-(2-hydroxyacetyl)piperidin-3-yl)amino)-5-(trifluoromethyl)pyrimidin-4-yl)amino)-trans-cyclohexyl)acrylamide]	F (provided a mass modification of 31-69%)
C=CC(=O)Nc1ccccc1Nc1nc(Nc2ccc(N3CCOCC3)cc2OC)ncc1/C(C)=N/OC [Compound I-274, (E)-N-(2-((2-((2-methoxy-4-morpholinophenyl)amino)-5-(1-(methoxyimino)ethyl)pyrimidin-4-yl)amino)phenyl)acrylamide]	G (proived a mass modification ≦30%)
C=CC(=O)Nc1cc(C)ccc1Nc1nc(Nc2ccnc(OC)c2)ncc1Cl [Compound I-235, N-(2-((5-chloro-2-((2-methoxypyridin-4-yl)amino)pyrimidin-4-yl)amino)-5-methylphenyl)acrylamide]	E (provided a mass modification of ≧70%)
O=C(CCCl)Nc1ccccc1Nc1nc(N[C@H]2CCCN(C(=O)CO)C2)ncc1C(F)(F)F [Compound I-22, (S)-3-Chloro-N-(2-((2-((1-(2-hydroxyacetyl)piperidin-3-yl)amino)-5-(trifluoromethyl)pyrimidin-4-yl)amino)phenyl)propanamide]	G (proived a mass modification ≦30%)
